Test results published in paper PMC7822874, “Chemoprotective antimalarials identified through quantitative high-throughput screening of Plasmodium blood and liver stage parasites” (Scientific Reports, 2021).
Read-outs that look alike come from different tables or passages of the source.

How the values were obtained:
Assay type in all cases: cell-based, Plasmodium falciparum
[1] = test system: P. falciparum Dd2 Cytb A122D; assay: SYBR Green ABS proliferation assay, NCGC00473217 selected clone F12; settings: Plasmodium falciparum
Protocol: (§1) As resistance selection studies implicated the parasite cytochrome bc1 complex in mediating reduced parasite susceptibility to both NCGC00473217 and NCGC00374598, we leveraged these drug-selected parasites to test for altered drug response to a panel of antimalarial compounds.
(§2) The P. falciparum parasite Dd2 line was cultured in vitro using standard conditions. […] Tissue culture flasks and assay plates were incubated at 37 °C under a gas mixture of 5% CO2, 5% O2 and 90% N2. […] Significant differences were assessed using two-sided Student’s t-tests. All HTS assays were stopped and read at 72 h. Percent response values represent relative growth as judged by SYBR Green-I fluorescence intensity values normalized to controls.
(§3) Fresh uninfected RBCs (0.5% hematocrit) were added on day 7 and media was changed every other day. […] Resistant parasites were maintained under drug media at a volume of 50 mL until a high parasitemia (> 5%) was achieved. Aliquots of the bulk resistant cultures were frozen in cryovials before cloning by limiting dilution in 96-well plates (seeded at 0.25 or 0.5 parasites/well)[70]. After 3 weeks of cloning, we screened for positive wells by flow cytometry with SYBR Green-stained cells. […] Parasites were harvested by saponin lysis at the trophozoite stage and genomic DNA was extracted using the QIAamp DNA Blood Midi Kit (Qiagen, Germantown, MD)[71].

[2] = test system: P. falciparum Dd2 Cytb F123L; assay: SYBR Green ABS proliferation assay, NCGC00473217 selected clone G08; settings: Plasmodium falciparum
Protocol: as §1, §2, §3

[3] = test system: P. falciparum Dd2 Cytb V259L; assay: SYBR Green ABS proliferation assay, NCGC00473217 selected clone F06; settings: Plasmodium falciparum
Protocol: as §1, §2, §3

[4] = test system: P. falciparum Dd2 Cytb G131S; assay: SYBR Green ABS proliferation assay, NCGC00374598 selected clone C11; settings: Plasmodium falciparum
Outline: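 Asexual blood-stage proliferation of cytochrome b-mutant Dd2 clones after 72 h compound exposure at 37 °C in low-oxygen gas, quantified as control-normalized SYBR Green-I fluorescence; differences tested by two-sided t-test.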

[5] = test system: P. falciparum Dd2 (clone B2) asexual blood stage parasites; assay: P. falciparum Dd2 asexual blood stage SYBR Green-I 72 h proliferation assay (qHTS); settings: Plasmodium falciparum, DD2, Dd2 parental; Hill fit, averaged from three independent replicates; top concentration 29 µM; read-out: Average AC50 (Log[M]), Dd2 (converted)
[6] = DD2, […], averaged from three independent replicates, top concentration 29 µM, read-out: Average AC50 (Log[M]), NCGC00473217 clone F12 (Cytb A122D) (converted)
[7] = DD2, […], averaged from three independent replicates, top concentration 29 µM, read-out: Average AC50 (Log[M]), NCGC00473217 clone G08 (Cytb F123L) (converted)
[8] = DD2, […], averaged from three independent replicates, top concentration 29 µM, read-out: Average AC50 (Log[M]), NCGC00473217 clone F06 (Cytb V259L) (converted)
[9] = DD2, […], averaged from three independent replicates, top concentration 29 µM, read-out: Average AC50 (Log[M]), NCGC00374598 clone C11 (Cytb G131S) (converted)
[10] = DD2, cytochrome b mutant line, third value triple, c9, […], read-out: log AC50, mean (converted)
[11] = DD2, cytochrome b mutant line, second value triple, c6, […], read-out: log AC50, mean (converted)
[12] = DD2, cytochrome b mutant line, fourth value triple, c12, […], read-out: log AC50, mean (converted)
[13] = DD2, cytochrome b mutant line, fifth value triple, c15, […], read-out: log AC50, mean (converted)

Structure (SMILES)	AC50 [1, 6]	AC50 [2, 7]	AC50 [3, 8]	AC50 [4, 9]	AC50 [3, 10]	AC50 [4, 11]	AC50 [1, 12]	AC50 [2, 13]	AC50 [5]
NS(=O)(=O)c1cc2c(cc1Cl)NC(C1CC3C=CC1C3)NS2(=O)=O (stereo not drawn) [NCGC00015288-06]	7.1e-07 M	5.64e-07 M	–	–	–	–	–	–	–
N[S+](=O)([O-])c1cc2c(cc1C(F)(F)F)NCN[S+]2(=O)[O-] [NCGC00016401-08]	3.56e-06 M	3.56e-06 M	3.85e-06 M	2.24e-05 M	–	–	–	–	–
N[S+](=O)([O-])c1cc2c(cc1Cl)NC(C(Cl)Cl)N[S+]2(=O)[O-] (stereo not drawn) [NCGC00018302-09]	6.32e-07 M	5.02e-06 M	1.42e-06 M	–	–	–	–	–	–
CC(C)c1nc2c(c(-c3ccc(Cl)cc3)n1)CCN(C(=O)c1ccc(C(F)(F)F)cc1)CC2 [NCGC00374584-01]	–	–	–	–	7.5e-06 M	6.93e-06 M	7.5e-06 M	8.41e-06 M	–
Cc1cc(CN2CCc3nc(C(C)C)nc(-c4ccc(Cl)cc4)c3CC2)no1 [NCGC00374612-01]	–	–	–	–	1.38e-05 M	1.55e-05 M	1.68e-05 M	9.79e-06 M	–
COc1ccc(-c2nc(C3CC3)nc3c2CCN(Cc2ccccc2)CC3)cc1 [NCGC00374622-01]	–	–	–	–	6.93e-06 M	6.43e-06 M	6.93e-06 M	6.68e-06 M	–
COc1ccc(-c2nc(C3CC3)nc3c2CCN(Cc2ccc(F)cc2)CC3)cc1 [NCGC00374624-01]	–	–	–	–	9.79e-06 M	8.73e-06 M	1.1e-05 M	9.08e-06 M	–
COc1ccc(-c2nc(C3CC3)nc3c2CCN(C(=O)c2ccc(C(F)(F)F)cc2)CC3)cc1 [NCGC00374638-01]	–	–	–	–	1.38e-05 M	1.19e-05 M	1.28e-05 M	1.06e-05 M	–
COc1ccc(-c2nc(C3CC3)nc3c2CCN(S(=O)(=O)c2ccccc2)CC3)cc1 [NCGC00374642-01]	–	–	–	–	1.61e-05 M	1.33e-05 M	1.44e-05 M	1.61e-05 M	–
COc1ccc(-c2nc(C3CC3)nc3c2CCN(Cc2ccc(C#N)cc2)CC3)cc1 [NCGC00374656-01]	–	–	–	–	1.14e-05 M	7.5e-06 M	8.41e-06 M	8.09e-06 M	–
COc1cc(OC)c(OC)cc1CN1CCc2nc(N(C)C)[nH]c(=O)c2CC1 [NCGC00440589-01]	–	–	–	–	2.76e-06 M	2.66e-06 M	1.61e-06 M	2.03e-06 M	–
O=c1[nH]c(N2CCOCC2)nc2c1CCN(Cc1ccc(C(F)(F)F)cc1)CC2 [NCGC00440629-01]	–	–	–	–	1.5e-05 M	6.43e-06 M	9.08e-06 M	1.88e-06 M	–
O=c1[nH]c(N2CCOCC2)nc2c1CCN(Cc1ccc(Cl)c(F)c1)CC2 [NCGC00440655-01]	–	–	–	–	1.38e-05 M	1.14e-05 M	1.28e-05 M	4.55e-06 M	–
CCc1nc2c(c(-c3ccc(Cl)cc3)n1)CCN(Cc1ccc(NC(C)=O)cc1)CC2 [NCGC00476919-01]	–	–	–	–	1.5e-05 M	1.28e-05 M	1.14e-05 M	2.03e-06 M	–
COc1ccc(-c2nc(C(C)C)nc3c2CCN(C(=O)c2ccccc2Cl)CC3)cc1 [NCGC00479503-01]	–	–	–	–	1.58e-05 M	2.28e-06 M	1.28e-05 M	1.23e-05 M	–
COc1ccc(-c2nc(C(C)C)nc3c2CCN(C(=O)c2cccc(Cl)c2)CC3)cc1 [NCGC00479504-01]	–	–	–	–	1.68e-05 M	1.55e-05 M	1.61e-05 M	1.19e-05 M	–
COc1ccc(-c2nc(C(C)C)nc3c2CCN(C(=O)Cc2cccc(Cl)c2)CC3)cc1 [NCGC00479508-01]	–	–	–	–	1.74e-05 M	1.33e-05 M	1.44e-05 M	1.28e-05 M	–
COc1ccc(-c2nc(C(C)C)nc3c2CCN(C(=O)Nc2ccccc2)CC3)cc1 [NCGC00479509-01]	–	–	–	–	1.61e-05 M	1.19e-05 M	1.44e-05 M	1.23e-05 M	–
COc1ccc(-c2nc(C(C)C)nc3c2CCN(C(=O)Cc2ccc(F)cc2)CC3)cc1 [NCGC00479517-01]	–	–	–	–	1.88e-05 M	1.5e-05 M	1.68e-05 M	1.06e-05 M	–

Structure (SMILES)	AC50 [1, 6]	AC50 [2, 7]	AC50 [3, 8]	AC50 [4, 9]	AC50 [3, 10]	AC50 [4, 11]	AC50 [1, 12]	AC50 [2, 13]	AC50 [5]
COc1ccc(-c2nc(C(C)C)nc3c2CCN(S(=O)(=O)c2cccc(C(F)(F)F)c2)CC3)cc1 [NCGC00479522-01]	–	–	–	–	1.28e-05 M	1.1e-05 M	1.68e-05 M	1.14e-05 M	–
CCc1nc2c(c(-c3ccc(O)cc3)n1)CCN(Cc1cccn1C)CC2 [NCGC00480312-01]	–	–	–	–	1.74e-05 M	1.88e-05 M	1.44e-05 M	1.14e-05 M	–
COc1ccc(CN2CCc3nc(C(C)C)nc(-c4ccc(O)cc4)c3CC2)cc1 [NCGC00480318-01]	–	–	–	–	9.08e-06 M	5.11e-06 M	7.78e-06 M	9.08e-06 M	–
CC(C)c1nc2c(c(-c3ccc(O)cc3)n1)CCN(C(=O)c1cccc(Cl)c1)CC2 [NCGC00480331-01]	–	–	–	–	1.81e-05 M	1.74e-05 M	1.68e-05 M	1.19e-05 M	–
COc1ccc(CN2CCc3nc(C4CC4)nc(-c4ccc(O)cc4)c3CC2)cc1 [NCGC00480355-01]	–	–	–	–	1.61e-05 M	1.06e-05 M	1.19e-05 M	1.23e-05 M	–
Cc1ccccc1C(=O)N1CCc2nc(C3CC3)nc(-c3ccc(O)cc3)c2CC1 [NCGC00480365-01]	–	–	–	–	1.28e-05 M	1.38e-05 M	1.81e-05 M	1.38e-05 M	–
O=C(c1cccc(Cl)c1)N1CCc2nc(C3CC3)nc(-c3ccc(O)cc3)c2CC1 [NCGC00480367-01]	–	–	–	–	2.66e-06 M	1.06e-05 M	1.55e-05 M	1.28e-06 M	–
CC(C)CC1=N[S+](=O)([O-])c2cc(NC(=O)c3cccs3)ccc2N1C [NCGC00521057-01]	1e-06 M	1.89e-07 M	–	2.24e-07 M	–	–	–	–	1.85e-06 M
CCCN1C(CC(C)C)=N[S+](=O)([O-])c2cc(NC(C)=O)ccc21 [NCGC00521093-01]	1.04e-05 M	7.96e-06 M	8.93e-06 M	2e-05 M	–	–	–	–	–
CCCN1C(CC(C)C)=N[S+](=O)([O-])c2cc(NC(=O)c3cccnn3)ccc21 [NCGC00521144-01]	2.67e-06 M	1.12e-05 M	2.82e-06 M	2e-05 M	–	–	–	–	–
CCCN1C(CC(C)C)=N[S+](=O)([O-])c2cc(NC(=O)c3ccc(-c4ccccc4)o3)ccc21 [NCGC00521160-01]	3.17e-06 M	5.02e-06 M	6.32e-06 M	–	–	–	–	–	–
CCCN1C(CC(C)C)=N[S+](=O)([O-])c2cc(N[S+](=O)([O-])c3cccs3)ccc21 [NCGC00521163-01]	8.93e-06 M	1.12e-05 M	1.59e-05 M	–	–	–	–	–	1.78e-05 M
CCCN1C(CC(C)C)=N[S+](=O)([O-])c2cc(NC(=O)c3c(C)noc3C)ccc21 [NCGC00521866-01]	7.52e-06 M	2.52e-06 M	–	1e-05 M	–	–	–	–	1.78e-05 M
CCCN1C(CC(C)C)=N[S+](=O)([O-])c2cc(NC(=O)c3cc4ccccc4o3)ccc21 [NCGC00521880-01]	3.99e-06 M	1.34e-06 M	4.48e-07 M	–	–	–	–	–	–
CCCN1C(CC(C)C)=N[S+](=O)([O-])c2cc(NC(=O)c3ccc(OC)cc3)ccc21 [NCGC00531533-02]	–	1e-06 M	1e-06 M	1.47e-06 M	–	–	–	–	2.52e-06 M
CCCN1C(CC(C)C)=N[S+](=O)([O-])c2cc(NC(=O)c3ccc(OC(F)(F)F)cc3)ccc21 [NCGC00531538-01]	1.59e-06 M	1.78e-05 M	–	–	–	–	–	–	1.26e-06 M
CCCN1C(CC(C)C)=N[S+](=O)([O-])c2cc(NC(=O)c3ccc(F)c(F)c3)ccc21 [NCGC00531540-01]	3.99e-07 M	7.1e-07 M	–	7.96e-07 M	–	–	–	–	5.22e-06 M
CC(C)CC1=N[S+](=O)([O-])c2cc(NC(=O)c3cccs3)ccc2N1 [NCGC00532401-01]	–	–	–	–	–	2.82e-07 M	7.1e-06 M	2.52e-09 M	–
CN1C(CC2CCCCC2)=N[S+](=O)([O-])c2cc(NC(=O)c3ccc(F)s3)ccc21 [NCGC00651709-01]	–	–	–	–	–	5.96e-06 M	5.31e-06 M	1.68e-05 M	–
